Data published in publication PMC8518382, “Identification of a Bromodomain‐like Region in 15‐Lipoxygenase‐1 Explains Its Nuclear Localization” (Angewandte Chemie (International Ed. in English), 2021).

Target: T1, 15-LOX-1 (Homo sapiens, UniProt P16050)
T1 sequence (P16050 1-662): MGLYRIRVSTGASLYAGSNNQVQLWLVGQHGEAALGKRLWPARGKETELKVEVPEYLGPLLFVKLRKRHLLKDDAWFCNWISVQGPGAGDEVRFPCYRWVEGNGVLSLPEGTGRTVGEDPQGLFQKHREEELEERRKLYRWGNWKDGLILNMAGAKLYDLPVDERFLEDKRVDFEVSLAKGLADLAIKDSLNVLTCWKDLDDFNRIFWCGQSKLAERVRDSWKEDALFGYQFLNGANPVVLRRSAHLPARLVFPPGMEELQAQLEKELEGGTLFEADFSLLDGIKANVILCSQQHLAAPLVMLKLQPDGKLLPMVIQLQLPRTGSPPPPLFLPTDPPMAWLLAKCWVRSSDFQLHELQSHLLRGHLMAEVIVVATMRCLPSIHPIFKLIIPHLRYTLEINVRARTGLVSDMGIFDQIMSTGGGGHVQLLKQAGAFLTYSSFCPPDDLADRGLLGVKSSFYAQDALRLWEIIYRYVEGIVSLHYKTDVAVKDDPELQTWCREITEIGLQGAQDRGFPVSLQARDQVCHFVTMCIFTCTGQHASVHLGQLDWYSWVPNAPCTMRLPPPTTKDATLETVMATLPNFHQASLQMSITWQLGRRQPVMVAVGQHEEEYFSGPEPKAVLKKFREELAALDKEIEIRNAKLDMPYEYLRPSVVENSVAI
Test: Kitz-Wilson kinetic analysis of 15-LOX-1 inactivation
Format: biochemical
Parameters: His-tag (N); made in house; host or cells: E. coli BL21(DE3)
Experimental: Subsequently, Kitz‐Wilson analysis was performed to distinguish the equilibrium binding constant (K i) from the rate of covalent inactivation (k i). The different bis‐alkynes provided remarkably constant k i’s that varied by a factor 3 or less, whereas the K i’s varied by a factor 200 (Table 1). […] Improved non‐covalent binding is an important characteristic for activity‐based labeling because it implies improved specific recognition properties to the target of interest. Therefore, inhibitor 3 has been used for further development of a probe for activity‐based labeling of lipoxygenase activity with 15‐LOX‐1 as a reference enzyme. For convenient discussion, we named inhibitor 3, “Labelox B”. […]
described in the IC50 determination assay. Michaelis-Menten plots, Lineweaver-Burk plots, Km, and Vmax, are generated using GraphPad Prism 8.3.0.
1.5. Kits-Wilson kinetic analysis
The probes inhibit the 15-LOX-1 enzyme with a two-step reaction. First, a probe binds to an enzyme to get a reversible complex, E*I. The dissociation constant of inhibitor (Ki) is from the formation of E*I. Then, the probe forms a covalent bond with the enzyme, which generates an irreversible complex, E-I. The inactivation rate constant (ki) is to describe the rate of E-I generation. To determine these inactivation parameters, Kitz-Wilson analysis was employed. The procedure has been detailed previously

k i (rate of covalent inactivation): 0.0191 ± 0.0038 min⁻¹ | Ki (read-out: K i (equilibrium binding constant)): 0.5 ± 0.14 µM
Compound: CCCCCC#CCC#CCOC(=O)CCCC[C@@H]1SC[C@@H]2NC(=O)N[C@@H]21 [Labelox B (3)]
